Test results as given in patent US20100144626A1, “Treatment of Multi-Drug Resistant Bacterial Infections” (priority 2006, published 2010).
In brackets after ≈: the same amount, converted by molar mass. Entries after “also recorded” stand apart in the source; their conditions may differ. Read-outs that look alike come from different tables or passages of the source.

Columns and labels:
[1] = tested on: Acinetobacter Baumannii ATCC 19606; assay: MIC, agar dilution (BSAC guidelines); format: cell-based
Experimental: (§1) In example experiments miconazole nitrate, was dissolved in methanol and econazole nitrate and clotrimazole were dissolved in DMSO and methanol respectively. Other solvents that may be used include caster oil, pyridine, DMSO and 0.9% saline. For IV administration agents may be solubilised in polyethoxylated caster oil, or cyclodextrins such as sulfobutylether7-βcyclodextrin or hydroxypropyl-β-cyclodextrin and lactic acid. Minimum inhibitory concentrations (MICs) of a range of clinical and control bacterial organisms were measured according to BSAC (British Society for Antimicrobial Chemotherapy) guidelines, described briefly as follows;
(§2) Preparation of Agar Plates and Broths
(§3) Stock solutions of each agent were prepared using the formula:
(§4) Where P=μg of active compound per mg (μg/mg) • V=volume required (mL) • C=final concentration of solution (mg/L) • W=weight of agent (mg) to be dissolved in volume V (mL)
(§5) Stock solutions were prepared at concentrations of 1000 mg/L and 100 mg/L. The appropriate amounts of each stock solution were added to separate Petri dishes give the following final concentrations (after the addition of 20 mL molten agar): 128, 64, 32, 16, 8, 4, 2, 1, 0.5, 0.25, 0.12, 0.06, 0.03, 0.015 mg/L.
(§6) Volumes (20 mL) of cooled molten IST agar (oxoid) was added to each Petri dish and mixed by swirling.
(§7) After drying, the plates were stored at 4° C. and protected from light. Plates were used on the day of preparation.
(§8) The test organisms were grown overnight in 5 mL IST broth. Using a dilution in 0.9% saline of 1:500 for Gram-negative organisms and 1:100 for Gram-positive organisms, the appropriate agar plates were inoculated using a multipoint inoculator.
(§9) Plates were incubated at 37° C. in air for 18-20 hours.
(§10) The MIC is the minimum amount of an antibiotic at which there is no visible growth of bacteria. Tiny single colonies or faint hazes were not counted as growth.

[2] = tested on: Enterococcus faecalis (VRE) E8 VanA; assay: MIC, agar dilution (BSAC guidelines); format: cell-based; details: E. faecalis (VRE) E8 VanA
Experimental: as §1, §2, §3, §4, §5, §6, §7, §8, §9, §10

[3] = tested on: Enterococcus faecium (VRE) E15 VanA ATCC 4147; assay: MIC, agar dilution (BSAC guidelines); format: cell-based
Experimental: as §1, §2, §3, §4, §5, §6, §7, §8, §9, §10

[4] = tested on: Enterococcus faecium (VRE) E19 UAA/522 VanB; assay: MIC, agar dilution (BSAC guidelines); format: cell-based; details: E. faecium (VRE) E19 UAA/522 VanB
Experimental: as §1, §2, §3, §4, §5, §6, §7, §8, §9, §10

[5] = tested on: Enterococcus faecium (VRE) NCTC 7171; assay: MIC, agar dilution (BSAC guidelines); format: cell-based
Experimental: as §1, §2, §3, §4, §5, §6, §7, §8, §9, §10

[6] = tested on: Enterococcus faecium (VRE) VanR B145344C LFE; assay: MIC, agar dilution (BSAC guidelines); format: cell-based; details: E. faecium (VRE) VanR B145344C LFE
Experimental: as §1, §2, §3, §4, §5, §6, §7, §8, §9, §10

[7] = tested on: Enterococcus gallinarum (VRE) E1 NCTC 12359 VanC1; assay: MIC, agar dilution (BSAC guidelines); format: cell-based
Experimental: as §1, §2, §3, §4, §5, §6, §7, §8, §9, §10

[8] = tested on: Escherichia coli NCTC 10418; assay: MIC, agar dilution (BSAC guidelines); format: cell-based
Experimental: as §1, §2, §3, §4, §5, §6, §7, §8, §9, §10

[9] = tested on: Klebsiella pneumoniae ESBL 700603; assay: MIC, agar dilution (BSAC guidelines); format: cell-based
Experimental: as §1, §2, §3, §4, §5, §6, §7, §8, §9, §10

[10] = tested on: Pseudomonas aeruginosa NCTC 10662; assay: MIC, agar dilution (BSAC guidelines); format: cell-based
Experimental: as §1, §2, §3, §4, §5, §6, §7, §8, §9, §10

[11] = tested on: Staphylococcus epidermidis ATCC 1228; assay: MIC, agar dilution (BSAC guidelines); format: cell-based
Experimental: as §1, §2, §3, §4, §5, §6, §7, §8, §9, §10

[12] = tested on: VISA, strain USA/VISA 5827; assay: MIC, agar dilution (BSAC guidelines); format: cell-based; details: Staphylococcus aureus
Experimental: as §1, §2, §3, §4, §5, §6, §7, §8, §9, §10

[13] = tested on: VISA, strain USA/VISA 5836; assay: MIC, agar dilution (BSAC guidelines); format: cell-based; details: Staphylococcus aureus
Experimental: as §1, §2, §3, §4, §5, §6, §7, §8, §9, §10

[14] = tested on: VISA, strain VISA 3900 UK; assay: MIC, agar dilution (BSAC guidelines); format: cell-based; details: Staphylococcus aureus
Experimental: as §1, §2, §3, §4, §5, §6, §7, §8, §9, §10

[15] = tested on: Gram-negative organisms; assay: Growth inhibition, summary of MIC testing; format: cell-based; details: summary in words
Experimental: as §1, §5, §8, §9, §10

[16] = tested on: strains of Staphylococci and Enterococci with reduced susceptibility to vancomycin; assay: Growth inhibition, summary of MIC testing; format: cell-based; details: summary in words
Experimental: as §1, §5, §8, §9, §10

[17] = in vivo, cited from earlier work
[18] = replicate 1, read-out: Minimum inhibitory concentration (MIC)
[19] = replicate 2, read-out: Minimum inhibitory concentration (MIC)
[20] = replicate 3, read-out: Minimum inhibitory concentration (MIC)

Clc1ccccc1C(c1ccccc1)(c1ccccc1)n1ccnc1 [Clotrimazole, 1-[(2-chlorophenyl)diphenylmethyl]-1H-imidazole]
MIC ([1]; ATCC19606, Acinetobacter Baumannii ATCC 19606, replicate 1, read-out: Minimum inhibitory concentration (MIC)): > 10 µg/mL
MIC ([1]; ATCC19606, Acinetobacter Baumannii ATCC 19606, replicate 2, read-out: Minimum inhibitory concentration (MIC)): > 6 µg/mL
MIC ([1]; ATCC19606, Acinetobacter Baumannii ATCC 19606, replicate 3, read-out: Minimum inhibitory concentration (MIC)): > 6 µg/mL
MIC [2, 18]: 6.5 µg/mL (≈ 18.8 µM)
MIC [2, 19]: > 6 µg/mL
MIC [2, 20]: > 6 µg/mL
MIC ([3]; E. faecium (VRE) E15 VanA ATCC 4147, replicate 1, read-out: Minimum inhibitory concentration (MIC)): 2.5 µg/mL (≈ 7.25 µM)
MIC ([3]; E. faecium (VRE) E15 VanA ATCC 4147, replicate 2, read-out: Minimum inhibitory concentration (MIC)): 4 µg/mL (≈ 11.6 µM)
MIC ([3]; E. faecium (VRE) E15 VanA ATCC 4147, replicate 3, read-out: Minimum inhibitory concentration (MIC)): 4.5 µg/mL (≈ 13 µM)
MIC [4, 18]: 1.5 µg/mL (≈ 4.35 µM)
MIC [4, 19]: 3.5 µg/mL (≈ 10.1 µM)
MIC [4, 20]: 3.5 µg/mL (≈ 10.1 µM)
MIC ([5]; E. faecium (VRE) NCTC 7171, replicate 1, read-out: Minimum inhibitory concentration (MIC)): 4 µg/mL (≈ 11.6 µM)
MIC ([5]; E. faecium (VRE) NCTC 7171, replicate 2, read-out: Minimum inhibitory concentration (MIC)): 6 µg/mL (≈ 17.4 µM)
MIC ([5]; E. faecium (VRE) NCTC 7171, replicate 3, read-out: Minimum inhibitory concentration (MIC)): > 6 µg/mL
MIC [6, 18]: 3 µg/mL (≈ 8.7 µM)
MIC [6, 19]: 4.5 µg/mL (≈ 13 µM)
MIC [6, 20]: 5 µg/mL (≈ 14.5 µM)
MIC ([7]; E. gallinarum (VRE) E1 NCTC 12359 VanC1, replicate 1, read-out: Minimum inhibitory concentration (MIC)): 4 µg/mL (≈ 11.6 µM)
MIC ([7]; E. gallinarum (VRE) E1 NCTC 12359 VanC1, replicate 2, read-out: Minimum inhibitory concentration (MIC)): 6 µg/mL (≈ 17.4 µM)
MIC ([7]; E. gallinarum (VRE) E1 NCTC 12359 VanC1, replicate 3, read-out: Minimum inhibitory concentration (MIC)): > 6 µg/mL
MIC ([8]; NCTC10418, E. coli NCTC 10418, replicate 1, read-out: Minimum inhibitory concentration (MIC)): > 10 µg/mL
MIC ([8]; NCTC10418, E. coli NCTC 10418, replicate 2, read-out: Minimum inhibitory concentration (MIC)): > 6 µg/mL
MIC ([8]; NCTC10418, E. coli NCTC 10418, replicate 3, read-out: Minimum inhibitory concentration (MIC)): > 6 µg/mL
MIC ([9]; ESBL700603, K. pneumoniae ESBL 700603, replicate 1, read-out: Minimum inhibitory concentration (MIC)): > 10 µg/mL
MIC ([9]; ESBL700603, K. pneumoniae ESBL 700603, replicate 2, read-out: Minimum inhibitory concentration (MIC)): > 6 µg/mL
MIC ([9]; ESBL700603, K. pneumoniae ESBL 700603, replicate 3, read-out: Minimum inhibitory concentration (MIC)): > 6 µg/mL
MIC ([10]; NCTC10662, P. aeruginosa NCTC 10662, replicate 1, read-out: Minimum inhibitory concentration (MIC)): > 10 µg/mL
MIC ([10]; NCTC10662, P. aeruginosa NCTC 10662, replicate 2, read-out: Minimum inhibitory concentration (MIC)): > 6 µg/mL
MIC ([10]; NCTC10662, P. aeruginosa NCTC 10662, replicate 3, read-out: Minimum inhibitory concentration (MIC)): > 6 µg/mL
MIC ([11]; ATCC1228, S. epidermidis ATCC 1228, replicate 1, read-out: Minimum inhibitory concentration (MIC)): 3 µg/mL (≈ 8.7 µM)
MIC ([11]; ATCC1228, S. epidermidis ATCC 1228, replicate 2, read-out: Minimum inhibitory concentration (MIC)): 3 µg/mL (≈ 8.7 µM)
MIC ([11]; ATCC1228, S. epidermidis ATCC 1228, replicate 3, read-out: Minimum inhibitory concentration (MIC)): 2.5 µg/mL (≈ 7.25 µM)
MIC [12, 18]: 1.5 µg/mL (≈ 4.35 µM)
MIC [12, 19]: 3.5 µg/mL (≈ 10.1 µM)
MIC [12, 20]: 3 µg/mL (≈ 8.7 µM)
MIC [13, 18]: 1.5 µg/mL (≈ 4.35 µM)
MIC [13, 19]: 3 µg/mL (≈ 8.7 µM)
MIC [13, 20]: 2.5 µg/mL (≈ 7.25 µM)
MIC [14, 18]: 1.5 µg/mL (≈ 4.35 µM)
MIC [14, 19]: 2.5 µg/mL (≈ 7.25 µM)
MIC [14, 20]: 2.5 µg/mL (≈ 7.25 µM)
activity against Gram-negative organisms [15]: no significant activity
activity against strains of Staphylococci and Enterococci with reduced susceptibility to vancomycin [16]: good activity; also recorded: capable of inhibiting the growth
administered dose detected in urine as active drug ([17]; po): Less than 1%
half-life ([17]; po): around 3 hours
absorption following oral administration [17]: well absorbed
